Here are results for 35 molecules from a melting point compilation (Tetko et al.; mined from patent text by program, amines drawn as free bases though some values may be those of a salt).

In general, melting point refers to the temperature of the solid-liquid transition. `CCCCOc1ncc(C(C)=O)cc1-c1nc2c(CC)n(C3CN(CC)C3)nc2c(=O)[nH]1` displayed a melting point of 143 to 144 °C.

In turn, `Cc1nc2cc(OCc3ccccc3)c(OCc3ccccc3)cc2nc1C(=O)O` returned a melting point of 198 to 200 °C.

As to `Cn1nc(-c2c(NCc3ccccn3)nc(N)nc2-c2ccccc2)ccc1=O`, the melting point is 248 to 250 °C.

For the molecule `CN(C/C=C\c1ccc(Cl)cc1)Cc1cccc2ccccc12`, the melting point is 41 to 42 °C. Consider `O=C(CCl)Nc1ccc(NC(=O)CCl)c2c1C(=O)c1ccccc1C2=O`, for which the melting point was 221 °C.

`O=C(NC1CCCCC1)NS(=O)(=O)c1ccc(CCNC(=O)N2CCC3=C(CCCC3)C2=O)cc1`: the melting point fell in the range of 176 to 177 °C. The molecule `COCCOc1cc(C)c(O)c2ccccc12` showed a melting point of 100 to 101 °C. To `CC(=O)NCC1CN(c2ccc(N3CCC(C(C#N)CO)CC3)c(F)c2)C(=O)O1` (stereo not given) belongs 136 to 138 °C; to `NS(=O)(=O)c1ccc(CCNC(=O)c2nc(-c3ccccc3)no2)cc1`, 217 to 218 °C; to `c1ncn(-c2cc3cc[nH]c3cn2)n1`, 203 to 205 °C. In turn, `CC1CC(c2ncc3nccc-3[nH]2)C(C)C(c2ccccc2)N1` (stereo not given) yielded a melting point of 131 to 132 °C.

The molecule `N#CN=C(NCNC(=O)c1ccc(Cl)cc1)Nc1cccnc1` had a melting point of 196 to 197 °C. The value for `CNC(=O)C1(Cl)CC1(Cl)Cl` (stereo not given) was 71 to 72 °C. The molecule `CSc1ccc(Cc2sc(NC(C)=O)nc2CCc2ccc(NC(=N)N)cc2)cc1` displayed a melting point of 160 to 161 °C. The value for `CC(C)(C)c1ccc(-c2nc(NC(=O)c3ccccc3)sc2-c2ccncc2)cc1` was 292 to 294 °C; that for `CCC1CCN(Cc2ccc(COc3cccc4c3CN(C3CCC(=O)NC3=O)C4=O)cc2)CC1` (stereo not given) was 180 to 182 °C. To `Nc1cccnc1NCc1ccc(Cl)cc1` belongs 123 to 125 °C. To `COC(=O)c1cc(Cl)c(C)c(Cl)c1` belongs 47.5 to 48.5 °C; to `Oc1ccc2c(c1)COc1c-2cc2ccc(O)cc2c1-c1ccccc1F`, 240 to 242 °C; to `N#Cc1c(N)oc2ccc(Cl)cc2c1=O`, 340 °C. Molecule `CN(C)C(=O)Nc1ccc(OCC(=O)c2ccccc2)c(Cl)c1` yielded a melting point of 148 to 150 °C.

Consider `Cc1cc(C(F)(F)F)nn1CC(=O)N1CCC(c2csc(NC(=O)Cc3c(F)cccc3Cl)n2)CC1`, for which the melting point was in the range of 249 to 251 °C. Consider `Cc1cc(Cl)c2c(O)c3c(=O)[nH][nH]c(=O)c3nc2c1`, for which the melting point is 197 to 199 °C. For the molecule `CC(CSC(=O)c1ccccc1)C(=O)N1C(C(=O)O)CC2CCCCC21` (stereo not given), the melting point is 184 to 186 °C. The value for `COc1cc(C=CC(=O)O)ccc1NC(C)=O` was 222 to 230 °C; that for `CCN(CC)CC(O)Cn1cc(-c2ccccc2)c2ccccc2c1=O` (stereo not given) was 106 °C. To `CN1CCN(C(=O)c2cccc3cc[nH]c23)CC1` belongs 176 to 178 °C; to `O=C(O)CCc1c(C(=O)O)[nH]c2cc(Br)cc(Br)c12`, 259 °C. Take `CCOC(=O)CCNC(=O)Oc1c(C)n(C)ccc1=O`: the melting point lay within 171 to 173 °C. Molecule `CC(C)(C)[Si](OCC1OC(n2ccc(N)nc2=S)C(O)(CC[Si](C)(C)C)C1O)(c1ccccc1)c1ccccc1` (stereo not given) displayed a melting point of 126 °C. To `Cc1ccc(Cn2c(=O)c(-c3ccccc3)c3n(c2=O)CC=CS3)cc1` belongs 124 to 125 °C. The value for `COc1cc(Nc2nc3c(s2)CCCC3c2ccccc2)ccc1C(N)=O` (stereo not given) was 243 to 246 °C; that for `COc1ccc(-c2noc(C(F)F)c2-c2ccc(S(N)(=O)=O)cc2)cc1` was 182 to 183 °C; that for `O=C1c2cc(S(=O)(=O)N3CCOCC3)ccc2SC12CC2` was 162 to 165 °C. On to `CSc1nc(-c2ccncc2)n(-c2ccc(C)cc2)c(=O)c1C#N`, for which the melting point was greater than 250 °C.
